Consider 28 molecules from PubChem BioAssay AID330 (DTP/NCI, 2004).

This test has as its system P388 leukemia ip, CD2F1 mice, survival T/C. The experiment in a line: NCI In Vivo Anticancer Drug Screen. Data for tumor model P388 Leukemia (intraperitoneal) in CD2F1 (CDF1) mice. The following applies: endpoint: median survival time, higher = longer survival. The gist of the method:
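Mice carrying the transplanted tumor received test compound or vehicle. Survival was recorded in each group, and the value is the treated-group measurement divided by that of the vehicle-treated control group.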

Where [1] appears, read: dose: 50.0 mg/kg/injection, schedule: Q01DX009 (ip), vehicle: saline with Tween-80.
Where [2] appears, read: dose: 100.0 mg/kg/injection, schedule: Q01DX009 (ip), vehicle: saline with Tween-80.
The mark [3] stands for this setting: dose: 25.0 mg/kg/injection, schedule: Q04DX003 (ip), vehicle: saline with Tween-80.
Setting [4] is: dose: 50.0 mg/kg/injection, schedule: Q01DX005 (ip), vehicle: saline with Tween-80.
Where [5] appears, read: dose: 50.0 mg/kg/injection, schedule: Q04DX003 (ip), vehicle: saline with Tween-80.
Where [6] appears, read: dose: 100.0 mg/kg/injection, schedule: Q01DX005 (ip), vehicle: saline with Tween-80.
Setting [7] is: dose: 100.0 mg/kg/injection, schedule: Q04DX003 (ip), vehicle: saline with Tween-80.
Setting [8] is: dose: 200.0 mg/kg/injection, schedule: Q01DX005 (ip), vehicle: saline with Tween-80.
Where [9] appears, read: dose: 200.0 mg/kg/injection, schedule: Q01DX009 (ip), vehicle: saline with Tween-80.
Setting [10] is: dose: 50.0 mg/kg/injection, schedule: Q01DX005 (ip), vehicle: Klucel (hydroxypropylcellulose) (HPC).
The mark [11] stands for this setting: dose: 100.0 mg/kg/injection, schedule: Q01DX005 (ip), vehicle: Klucel (hydroxypropylcellulose) (HPC).
Where [12] appears, read: dose: 200.0 mg/kg/injection, schedule: Q04DX003 (ip), vehicle: Klucel (hydroxypropylcellulose) (HPC).
Where [13] appears, read: dose: 60.0 mg/kg/injection, schedule: Q01DX005 (ip), vehicle: saline with Tween-80.
Setting [14] is: dose: 120.0 mg/kg/injection, schedule: Q01DX005 (ip), vehicle: saline with Tween-80.
[15] abbreviates: dose: 240.0 mg/kg/injection, schedule: Q01DX005 (ip), vehicle: saline with Tween-80.
The mark [16] stands for this setting: dose: 200.0 mg/kg/injection, schedule: Q01DX005 (ip), vehicle: Klucel (hydroxypropylcellulose) (HPC).
[17] abbreviates: dose: 200.0 mg/kg/injection, schedule: Q04DX003 (ip), vehicle: saline with Tween-80.
The mark [18] stands for this setting: dose: 400.0 mg/kg/injection, schedule: Q04DX003 (ip), vehicle: saline with Tween-80.

Several values for one entry are separate records, joined by “and”; a condition that tells them apart may be missing. Identical values can stand only once. Inconclusive results and toxic doses are left out.

As to `O=[N+]([O-])CC(OCCCCCCO)C(Cl)(Cl)Cl` (centres undefined), the T/C was 100 % of control under setting [1] and 95 % of control under setting [2].

As for `Oc1cc(O)c2c(c1)Oc1cc(O)cc(O)c1C2`, the T/C is, setting by setting: under setting [3], 100 % of control; under setting [4], 106 % of control; under setting [5], 98 % of control; under setting [6], 109 % of control; under setting [7], 97 % of control; under setting [8], 115 % of control.

Turning to `Clc1ccc(CSSCc2ccc(Cl)cc2)cc1`, the T/C (dose: 12.5 mg/kg/injection, schedule: Q04DX003 (ip), vehicle: saline with Tween-80) is 100 % of control; the T/C under setting [3] is 100 % of control; the T/C under setting [5] is 100 % of control; the T/C under setting [7] was 107 % of control.

As for `Oc1cccc2c1[O][Sb][O]2`, the T/C was 120 % of control (dose: 4.0 mg/kg/injection, schedule: Q01DX009 (ip), vehicle: Klucel (hydroxypropylcellulose) (HPC)); 101 % of control (dose: 4.0 mg/kg/injection, schedule: Q03HX016 (ip), vehicle: Klucel (hydroxypropylcellulose) (HPC)); 103 % of control (dose: 4.0 mg/kg/injection, schedule: Q03HX024 (ip), vehicle: Klucel (hydroxypropylcellulose) (HPC)); 116 % of control (dose: 8.0 mg/kg/injection, schedule: Q03HX024 (ip), vehicle: Klucel (hydroxypropylcellulose) (HPC)); 166 % of control (dose: 50.0 mg/kg/injection, schedule: Q01DX009 (ip), vehicle: saline); 122 % of control (dose: 64.0 mg/kg/injection, schedule: Q01DX001 (ip), vehicle: Klucel (hydroxypropylcellulose) (HPC)). Where the note is “dose: 128.0 mg/kg/injection, schedule: Q01DX001 (ip), vehicle: Klucel (hydroxypropylcellulose) (HPC)”, the T/C is 115 % of control.

Take `COc1ccc(CC2C=CCN2C(=O)OCc2ccccc2)cc1` (centres undefined): the T/C was 106 % of control (dose: 100.0 mg/kg/injection, schedule: Q01DX001 (ip), vehicle: Klucel (hydroxypropylcellulose) (HPC)); 99 % of control (dose: 200.0 mg/kg/injection, schedule: Q01DX001 (ip), vehicle: Klucel (hydroxypropylcellulose) (HPC)); 99 % of control (dose: 400.0 mg/kg/injection, schedule: Q01DX001 (ip), vehicle: Klucel (hydroxypropylcellulose) (HPC)).

In the case of `CC(C)=N/N=C1\C(OC(=O)Nc2ccccc2)=Nc2ccccc21`, the T/C reads like this: under setting [4], 96 % of control; under setting [6], 95 % of control; under setting [8], 90 % of control.

`COc1ccc(Br)c(C(=O)Sc2nnnn2-c2cccc(Cl)c2)c1`: the T/C runs as follows: under setting [1], 111 % of control; under setting [2], 116 % of control; under setting [9], 115 % of control.

With `CC1(C)Nc2cccc3cccc(c23)N1`, the T/C runs as follows: under setting [10], 108 % of control; under setting [11], 86 % of control.

In the case of `C/C(=N\N=C(/[Se])N1CCCCCC1)c1ccccn1`, the T/C is 110 % of control (dose: 25.0 mg/kg/injection, schedule: Q04DX003 (ip), vehicle: Klucel (hydroxypropylcellulose) (HPC)); 118 % of control (dose: 50.0 mg/kg/injection, schedule: Q04DX003 (ip), vehicle: Klucel (hydroxypropylcellulose) (HPC)); 86 % of control under setting [12].

Turning to `CC1(c2ccccc2)OC1C(=O)N(c1ccccc1)c1ccccc1` (centres undefined), the T/C was 96 % of control (dose: 100.0 mg/kg/injection, schedule: Q04DX003 (ip), vehicle: Klucel (hydroxypropylcellulose) (HPC)); 94 % of control under setting [12]; 88 % of control (dose: 400.0 mg/kg/injection, schedule: Q04DX003 (ip), vehicle: Klucel (hydroxypropylcellulose) (HPC)).

For the molecule `CCCCCCCCC1CCC(=O)NC1=O` (centres undefined), the T/C by setting is: under setting [13], 112 % of control; under setting [14], 104 % of control; under setting [15], 93 % of control.

For the molecule `CCOC(=O)c1cc(/C=C/c2ccc(Cl)cc2)on1`, the T/C reads like this: under setting [13], 91 % of control; under setting [14], 90 % of control.

In the case of `O=C1C2CCSCN2C(=O)N1c1ccccc1` (centres undefined), the T/C is 95 % of control under setting [13], 103 % of control under setting [14] and 95 % of control under setting [15].

Regarding `COc1ccc(CCN2CCC(Nc3nc4ccccc4n3Cc3ccc(F)cc3)CC2)cc1`, the T/C by setting is: under setting [4], 92 % of control; under setting [6], 95 % of control.

For the molecule `CN(C)C1=CC(=S)NC(c2ccccc2)C1` (centres undefined), the T/C reads like this: under setting [10], 103 % of control; under setting [11], 100 % of control; under setting [16], 105 % of control.

With `CCCC1OP(=O)(N2CC(C)N(P3(=O)OCC(CC)C(CCC)O3)CC2C)OCC1CC` (centres undefined), the T/C under setting [10] was 90 % of control and the T/C under setting [11] is 101 % of control.

Turning to `COc1ccc(Cc2c3cc(OC)c(OC)cc3cc[n+]2CC(=O)c2ccc(Cl)cc2)cc1OC`, the T/C by setting is: under setting [10], 105 % of control; under setting [11], 111 % of control.

With `CC(=O)Oc1ccc(C(O)CN(C)OC(C)=O)cc1OC(C)=O` (centres undefined), the T/C was 100 % of control (dose: 12.5 mg/kg/injection, schedule: Q01DX005 (ip), vehicle: Klucel + Tween-80); 101 % of control (dose: 25.0 mg/kg/injection, schedule: Q01DX005 (ip), vehicle: Klucel + Tween-80); 101 % of control and 92 % of control (dose: 50.0 mg/kg/injection, schedule: Q01DX005 (ip), vehicle: Klucel + Tween-80).

For the molecule `O=c1[nH]c(-c2ccc(Cl)cc2)nc2sc3c(c12)CCCC3`, the T/C under setting [10] is 86 % of control, the T/C under setting [11] was 90 % of control and the T/C under setting [16] was 99 % of control.

As for `C=C(C)C(=NC(C)C)Nc1ccccc1Cl`, the T/C runs as follows: under setting [10], 92 % of control and 108 % of control; under setting [11], 92 % of control and 107 % of control; under setting [16], 98 % of control.

As for `COC(=O)n1oc2ccccc2c1=O`, the T/C reads like this: (dose: 100.0 mg/kg/injection, schedule: Q04DX002 (ip), vehicle: Klucel (hydroxypropylcellulose) (HPC)) 99 % of control; (dose: 200.0 mg/kg/injection, schedule: Q04DX002 (ip), vehicle: Klucel (hydroxypropylcellulose) (HPC)) 101 % of control; (dose: 400.0 mg/kg/injection, schedule: Q04DX002 (ip), vehicle: Klucel (hydroxypropylcellulose) (HPC)) 101 % of control.

In the case of `CCOC(=O)C1=NN(c2ccccc2)CC1C(=O)OC` (centres undefined), the T/C is, setting by setting: (dose: 50.0 mg/kg/injection, schedule: Q04DX002 (ip), vehicle: suspension in saline) 103 % of control; (dose: 100.0 mg/kg/injection, schedule: Q04DX002 (ip), vehicle: suspension in saline) 100 % of control; (dose: 200.0 mg/kg/injection, schedule: Q04DX002 (ip), vehicle: suspension in saline) 98 % of control.

For `S=C(N/N=C1/CCCC/C1=N/NC(=S)N1CCOCC1)N1CCOCC1`, the T/C was 101 % of control and 103 % of control (dose: 1.56 mg/kg/injection, schedule: Q01DX005 (ip), vehicle: saline with Tween-80); 99 % of control and 103 % of control and 104 % of control (dose: 3.12 mg/kg/injection, schedule: Q01DX005 (ip), vehicle: saline with Tween-80).

With `CC#CC#CC#C/C=C\CCC(=O)CC`, the T/C is, setting by setting: (dose: 12.5 mg/kg/injection, schedule: Q01DX009 (ip), vehicle: Klucel (hydroxypropylcellulose) (HPC)) 95 % of control; (dose: 25.0 mg/kg/injection, schedule: Q01DX009 (ip), vehicle: Klucel (hydroxypropylcellulose) (HPC)) 95 % of control; (dose: 50.0 mg/kg/injection, schedule: Q01DX009 (ip), vehicle: Klucel (hydroxypropylcellulose) (HPC)) 95 % of control; (dose: 100.0 mg/kg/injection, schedule: Q01DX009 (ip), vehicle: Klucel (hydroxypropylcellulose) (HPC)) 100 % of control.

In the case of `CC1(C)C2=CCCC3(OCCO3)C2(C)CCC1O` (centres undefined), the T/C by setting is: under setting [7], 90 % of control; under setting [17], 90 % of control; under setting [18], 90 % of control.

Consider `C(=Nc1ccccc1)C1=C(Nc2ccccc2)CCC1`, for which the T/C under setting [10] is 100 % of control, the T/C under setting [11] is 100 % of control and the T/C under setting [16] is 106 % of control.

As for `N#Cc1cnn(C(N)=O)c1N`, the T/C was 110 % of control under setting [2]; 100 % of control under setting [7]; 110 % of control under setting [9]; 100 % of control under setting [17]; 100 % of control (dose: 400.0 mg/kg/injection, schedule: Q01DX009 (ip), vehicle: saline with Tween-80); 100 % of control under setting [18].

Consider `NNC(=O)CNC(=O)Nc1cccc(C(F)(F)F)c1`, for which the T/C was 100 % of control under setting [1], 92 % of control under setting [2] and 100 % of control under setting [9].
